# Experimental data as given in publication PMC7415729 (Pharmacology, biochemistry, and behavior, 2020).
# How the values were obtained:
# C57BL/6 mice [1] = test: Radiotelemetry of core temperature with 1-ABT pretreatment; assay type: in vivo, mouse
# C57BL/6 mice [2] = test: Cannabinoid tetrad: antinociception; assay type: in vivo, mouse; conditions: for tail withdrawal latency, % of the maximum: maximal latency 10 sec
# CB1 receptors [3] = target: T1, CB1 receptors (Mus musculus, UniProt P47746); test: [35S]GTPγS binding; conditions: for EC50: N=3
# C57BL/6 mice [4] = test: Cannabinoid tetrad: hypothermia; assay type: in vivo, mouse; conditions: for reduction of rectal temperature below the physiological range: highest tested dose
# C57BL/6 mice [5] = test: Cannabinoid tetrad: locomotor activity; assay type: in vivo, mouse; conditions: for decrease of locomotor activity below the vehicle control condition: highest tested dose
# CB1 receptors [6] = target: T1, CB1 receptors; test: Competition receptor binding vs [3H]CP-55,940 in mouse brain membranes; conditions: pKi, displacement of 0.2 nM [3H]CP-55,940, mouse brain membranes, N=3
# C57BL/6 mice [7] = test: Cannabinoid tetrad: catalepsy; assay type: in vivo, mouse
# [8] = tested on: HLM (human liver microsomes); test: Oxidative metabolism by human microsomes; assay type: in vitro ADME; conditions: 50 μM 5F-AKB48, mixed gender HLM 1 μg/μl, 60 min
# [9] = tested on: HIM (human intestinal microsomes); test: Oxidative metabolism by human microsomes; assay type: in vitro ADME; conditions: 50 μM 5F-AKB48, HIM 1 μg/μl, 60 min
# [10] = tested on: HBM (human brain microsomes); test: Oxidative metabolism by human microsomes; assay type: in vitro ADME; conditions: 50 μM 5F-AKB48, HBM 1 μg/μl, 60 min
# [11] = 5F-AKB48 3.2 mg/kg, mice pretreated with 100 mg/kg 1-ABT
# [12] = 5F-AKB48 3.2 mg/kg, vehicle-pretreated mice
# [13] = rimonabant 10.0 mg/kg i.p. before 3.2 mg/kg 5F-AKB48
# [14] = rimonabant 10.0 mg/kg i.p. before 32 mg/kg Δ9-THC
# T1 sequence (P47746 whole entry): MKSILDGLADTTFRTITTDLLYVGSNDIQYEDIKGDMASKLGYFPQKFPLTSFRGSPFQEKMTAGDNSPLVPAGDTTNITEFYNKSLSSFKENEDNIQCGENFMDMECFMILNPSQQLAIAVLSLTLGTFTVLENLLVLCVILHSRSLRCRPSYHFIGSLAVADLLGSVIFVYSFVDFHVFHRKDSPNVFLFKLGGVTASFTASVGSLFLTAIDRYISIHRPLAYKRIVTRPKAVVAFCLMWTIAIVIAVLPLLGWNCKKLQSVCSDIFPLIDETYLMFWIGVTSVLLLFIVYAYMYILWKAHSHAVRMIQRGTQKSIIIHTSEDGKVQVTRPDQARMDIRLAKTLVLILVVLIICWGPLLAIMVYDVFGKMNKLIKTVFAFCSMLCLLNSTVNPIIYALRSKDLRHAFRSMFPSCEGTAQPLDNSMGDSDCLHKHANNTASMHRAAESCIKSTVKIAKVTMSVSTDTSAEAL
smiles,measurement,setting,value
"Nn1nnc2ccccc21 [1-ABT, reference compound]",effect on core temperature,"C57BL/6 mice [1]; 100 mg/kg 1-ABT alone, 2 hours",no systematic changes in temperature
"O=C(NC12CC3CC(CC(C3)C1)C2)c1nn(CCCCCF)c2ccccc12 [5F-AKB48, N-(adamantan-1-yl)-1-(5-fluoropentyl)-1H-indazole-3-carboxamide]",duration of antinociceptive effects (still apparent),C57BL/6 mice [2]; 5F-AKB48 3.2 mg/kg i.p.,at least 6 hours
same,"tail withdrawal latency, % of the maximum","C57BL/6 mice [2]; 5F-AKB48 3.2 mg/kg i.p., by 15 min post-injection",approximately 90%
same,G protein activation by 1 μM compound on co-incubation with rimonabant,"CB1 receptors [3]; 1 μM compound + rimonabant 100 nM, mouse brain membranes",complete reversal
same,EC50,"CB1 receptors [3]; pEC50, [35S]GTPγS binding, mouse brain membranes",6.24 nM
same,EC50,"CB1 receptors [3]; potency (EC50), [35S]GTPγS binding, mouse brain membranes 25 μg",7.7 nM
same,Emax,"CB1 receptors [3]; read-out: Emax, increase of [35S]GTPγS binding",182%
same,time by which hypothermic effects completely resolved,C57BL/6 mice [4]; 5F-AKB48 3.2 mg/kg i.p.,≤ 4 h
same,reduction of rectal temperature below the physiological range,C57BL/6 mice [4]; 5F-AKB48 3.2 mg/kg i.p.,approximately 4 °
same,decrease of locomotor activity below the vehicle control condition,C57BL/6 mice [5]; 5F-AKB48 3.2 mg/kg i.p.,approximately 5 fold
same,duration of hypothermic action,C57BL/6 mice [1]; [11],at least 12 hours
same,minimum core temperature below the physiological range,C57BL/6 mice [1]; [11],approximately 7 °
same,minimum core temperature below the physiological range,C57BL/6 mice [1]; [12],approximately 7 °
same,time by which hypothermic effects completely resolved,C57BL/6 mice [1]; [12],≤ 4 h
same,"area under the curve for hypothermic effects, 1-ABT-treated vs vehicle mice","C57BL/6 mice [1]; 5F-AKB48 3.2 mg/kg, 100 mg/kg 1-ABT pretreatment",approximately 5 fold
same,Ki,CB1 receptors [6],0.665 nM
same,time by which cataleptic effects largely resolved,C57BL/6 mice [7]; 5F-AKB48 3.2 mg/kg i.p.,≤ 3 h
same,horizontal bar latency,"C57BL/6 mice [7]; 5F-AKB48 3.2 mg/kg i.p., any time point, 30 sec cut-off",< 30 s
same,production of hydroxylated metabolites,[8],highest amount
same,oxidative activity / metabolite production,[9],significant amount of activity
same,oxidative activity,[10],did not show any activity
Cc1c(C(=O)NN2CCCCC2)nn(-c2ccc(Cl)cc2Cl)c1-c1ccc(Cl)cc1 [rimonabant],effect of prior rimonabant on antinociceptive effects of 5F-AKB48,C57BL/6 mice [2]; [13],completely blocked
same,effect of prior rimonabant on antinociceptive effects of Δ9-THC,C57BL/6 mice [2]; [14],completely blocked
same,effect of prior rimonabant on hypothermic effects of 5F-AKB48,C57BL/6 mice [4]; [13],completely blocked
same,effect of prior rimonabant on hypothermic effects of Δ9-THC,C57BL/6 mice [4]; [14],completely blocked
same,effect of prior rimonabant on hypolocomotor effects of 5F-AKB48,C57BL/6 mice [5]; [13],partially attenuated
same,effect of prior rimonabant on hypolocomotor effects of Δ9-THC,C57BL/6 mice [5]; [14],partially attenuated
same,effect of prior rimonabant on cataleptic effects of 5F-AKB48,C57BL/6 mice [7]; [13],completely blocked
same,effect of prior rimonabant on cataleptic effects of Δ9-THC,C57BL/6 mice [7]; [14],completely blocked
"CCCCCc1cc(O)c2c(c1)OC(C)(C)[C@@H]1CCC(C)=C[C@@H]21 [Δ^9-THC, Δ^9-tetrahydrocannabinol]",duration of antinociceptive effects (still apparent),C57BL/6 mice [2]; Δ9-THC 32 mg/kg i.p.,at least 6 hours
same,"tail withdrawal latency, % of the maximum","C57BL/6 mice [2]; Δ9-THC 32 mg/kg i.p., by 30 min post-injection",approximately 90%
same,duration of hypothermic effects (still apparent after drug administration),C57BL/6 mice [4]; Δ9-THC 32 mg/kg i.p.,≥ 6 h
same,reduction of rectal temperature below the physiological range,C57BL/6 mice [4]; Δ9-THC 32 mg/kg i.p.,approximately 4 °
same,decrease of locomotor activity below the vehicle control condition,C57BL/6 mice [5]; Δ9-THC 32 mg/kg i.p.,approximately 5 fold
same,duration of cataleptic effects (still apparent),C57BL/6 mice [7]; Δ9-THC 32 mg/kg i.p.,≥ 6 h
same,horizontal bar latency,"C57BL/6 mice [7]; Δ9-THC 32 mg/kg i.p., by 15 min post-injection, 30 sec maximum",~30 s
